# Laboratory results: patent US10835542B2, “9-aminomethyl minocycline compounds and use thereof in treating community-acquired bacterial pneumonia (CABP)” (Paratek Pharmaceuticals, Inc., priority 2016, dated 2020)
compound,measurement,setting,value
"COc1c(N2C[C@@H]3CCCN[C@@H]3C2)c(F)cc2c(=O)c(C(=O)O)cn(C3CC3)c12 [Moxifloxacin, moxifloxacin, reference compound]",Total number of deaths,ITT population,4
same,Subjects who died,Safety population,4 (1.0) n (%)
same,Subjects with at least one Adverse Event (AE),Safety population,200 (51.5) n (%)
same,Subjects with at least one Drug-Related Serious TEAE,Safety population,2 (0.5) n (%)
same,Subjects with at least one Drug-Related TEAE,Safety population,69 (17.8) n (%)
same,Subjects with at least one Serious TEAE,Safety population,26 (6.7) n (%)
same,Subjects with at least one Serious TEAE Leading to Death,Safety population,4 (1.0) n (%)
same,Subjects with at least one Serious TEAE Leading to Premature Discontinuation of Test Article,Safety population,11 (2.8) n (%)
same,Subjects with at least one Severe TEAE,Safety population,26 (6.7) n (%)
same,Subjects with at least one TEAE,Safety population,188 (48.5) n (%)
same,Subjects with at least one TEAE Leading to Dose Interruption,Safety population,0 n (%)
same,Subjects with at least one TEAE Leading to Premature Discontinuation of Study,Safety population,9 (2.3) n (%)
same,Subjects with at least one TEAE Leading to Premature Discontinuation of Test Article,Safety population,27 (7.0) n (%)
same,TEAE leading to study drug discontinuation: Diarrhoea,Safety population,1 (0.3) n (%)
same,TEAE leading to study drug discontinuation: Dyspepsia,Safety population,1 (0.3) n (%)
same,TEAE leading to study drug discontinuation: Gastrointestinal Disorders,Safety population,2 (0.5) n (%)
same,TEAE leading to study drug discontinuation: Nausea,Safety population,0 n (%)
same,TEAE leading to study drug discontinuation: Vomiting,Safety population,0 n (%)
same,TEAE: Alanine Aminotransferase Increased,Safety population,18 (4.6) n (%)
same,TEAE: Aspartate Aminotransferase Increased,Safety population,14 (3.6) n (%)
same,TEAE: Constipation,Safety population,6 (1.5) n (%)
same,TEAE: Diarrhoea,Safety population,31 (8.0) n (%)
same,TEAE: Dyspepsia,Safety population,2 (0.5) n (%)
same,TEAE: Gamma-Glutamyltransferase Increased,Safety population,8 (2.1) n (%)
same,TEAE: Headache,Safety population,5 (1.3) n (%)
same,TEAE: Hypertension,Safety population,11 (2.8) n (%)
same,TEAE: Insomnia,Safety population,8 (2.1) n (%)
same,TEAE: Nausea,Safety population,21 (5.4) n (%)
same,TEAE: Pseudomembranous Colitis,Safety population,1 (0.3) n (%)
same,TEAE: Vomiting,Safety population,6 (1.5) n (%)
same,Total Number of AEs,Safety population,520
same,Total Number of TEAEs,Safety population,461
